Measured values as given in ChEMBL document CHEMBL6127120, “Antiplasmodial and Insecticidal Activities of Third-Generation Ivermectin Hybrids” (J Med Chem, 2024).
The source made the active and inactive calls. No cut-off for these calls is given here.

Legend:
Type in all cases: functional, organism-based
Plasmodium berghei [1] = assay: Anti-plasmodial activity against pre-erythrocytic stage Plasmodium berghei infected in human Huh-7 cells by bioluminescence assay
Plasmodium berghei [2] = assay: Anti-plasmodial activity against hepatic stage GFP-expressing Plasmodium berghei infected in human Huh-7 cells assessed as parasite invasion of host cells treated at IC90 measured after 2 hrs of post-infection by flow cytometry
Plasmodium berghei [3] = assay: Anti-plasmodial activity against pre-erythrocytic stage Plasmodium berghei infected in human Huh-7 cells at 10 to 500 nM by bioluminescence assay; conditions: dose 10-500 nM
Plasmodium berghei [4] = assay: Anti-plasmodial activity against hepatic stage GFP-expressing Plasmodium berghei infected in human Huh-7 cells assessed as parasite invasion of host cells treated at IC90 measured after 48 hrs of post-infection by flow cytometry
Plasmodium berghei [5] = assay: In vivo antiplasmodial activity against Balb/c mouse infected with luciferase expressing Plasmodium berghei infected in red blood cells assessed as parasitemia in blood by measuring bioluminescence at 2 mg/kg, oral gavage 4 consecutive treatment measured upto day 8; conditions: time 8.0 day
Plasmodium falciparum = assay: Anti-plasmodial activity against erythrocytic stage Plasmodium falciparum NF54 in […] measured after 48 hrs by SYBR green dye based flow cytometry; conditions: NF54, 48 h
Anopheles stephensi = assay: Anti-insecticidal activity against female Anopheles stephensi mosquitoes assessed as mosquito survival treated after 18 to 22 hrs starvation using 70 ng/ml compound containing human O+ blood meal via artificial membrane measured after 14 days relative to control
Plasmodium berghei [6] = assay: In vivo antiplasmodial activity against Balb/c mouse infected with luciferase expressing Plasmodium berghei infected in red blood cells assessed as parasitemia in blood by measuring bioluminescence at 50 mg/kg, oral gavage 4 consecutive treatment measured upto day 8; conditions: time 8.0 day

**Q.** How did the IC50 (Plasmodium berghei [1]) turn out when `CCOC(=O)c1c(C)nc(OCc2cn(CC(=O)O[C@H]3[C@H](C)O[C@@H](O[C@@H]4/C(C)=C/C[C@@H]5C[C@@H](C[C@]6(CC[C@H](C)[C@@H](C(C)CC)O6)O5)OC(=O)[C@@H]5C=C(C)[C@@H](O)[C@H]6OC/C(=C\C=C\[C@@H]4C)[C@]65O)C[C@@H]3OC)nn2)nc1-c1cc(OC)c(OC)cc1[N+](=O)[O-]` (stereo not given in full) was run?
**A.** 1540 nM

**Q.** And the IC90 (Plasmodium berghei [1])?
**A.** 3180 nM

**Q.** What about the Activity (Plasmodium berghei [2]) of the same compound?
**A.** inactive

**Q.** What about the Activity (Plasmodium berghei [3]) of the same compound?
**A.** Dose-Dependent Effect

**Q.** What about the Activity (Plasmodium berghei [4]) of the same compound?
**A.** Active

**Q.** What about the Activity (Plasmodium berghei [5]) of the same compound?
**A.** inactive

**Q.** What about the IC50 (Plasmodium falciparum) of the same compound?
**A.** 110 nM

**Q.** Which IC50 (Plasmodium berghei [1]) does the source give for `CCC(C)[C@H]1O[C@]2(CC[C@@H]1C)C[C@@H]1C[C@@H](C/C=C(\C)[C@@H](O[C@H]3C[C@H](OC)[C@@H](O[C@H]4C[C@H](OO)[C@@H](O)[C@H](C)O4)[C@H](C)O3)[C@@H](C)/C=C/C=C3\CO[C@@H]4[C@H](O[Si](C)(C)C(C)(C)C)C(C)=C[C@@H](C(=O)O1)[C@]34O)O2` (stereo not given in full) here?
**A.** 3690 nM

**Q.** What about the Activity (Plasmodium berghei [3]) of the same compound?
**A.** Dose-Dependent Effect

**Q.** What about the IC50 (Plasmodium falciparum) of the same compound?
**A.** 700 nM

**Q.** `CCC(C)[C@H]1O[C@]2(CC[C@@H]1C)C[C@@H]1C[C@@H](C/C=C(\C)[C@@H](O[C@H]3C[C@H](OC)[C@@H](O)[C@H](C)O3)[C@@H](C)/C=C/C=C3\CO[C@@H]4[C@H](O[Si](C)(C)C(C)(C)C)C(C)=C[C@@H](C(=O)O1)[C@]34O)O2` (stereo not given in full) was tested. Which IC50 (Plasmodium berghei [1]) did it give?
**A.** 2910 nM

**Q.** And the Activity (Plasmodium berghei [3])?
**A.** Dose-Dependent Effect

**Q.** What about the IC50 (Plasmodium falciparum) of the same compound?
**A.** 720 nM

**Q.** With `CCC(C)[C@H]1O[C@]2(CC[C@@H]1C)C[C@@H]1C[C@@H](C/C=C(\C)[C@@H](O[C@H]3C[C@H](OC)[C@@H](O[C@H]4C[C@H](OO)[C@@H](OC(=O)CNC5CCNCC5)[C@H](C)O4)[C@H](C)O3)[C@@H](C)/C=C/C=C3\CO[C@@H]4[C@H](O)C(C)=C[C@@H](C(=O)O1)[C@]34O)O2` (stereo not given in full) as the compound, how does the IC50 (Plasmodium berghei [1]) read?
**A.** 5800 nM

**Q.** And the Activity (Anopheles stephensi)?
**A.** inactive

**Q.** And the Activity (Plasmodium berghei [3])?
**A.** inactive

**Q.** With `CCC(C)[C@H]1O[C@]2(CC[C@@H]1C)C[C@@H]1C[C@@H](C/C=C(\C)[C@@H](O)[C@@H](C)/C=C/C=C3\CO[C@@H]4[C@H](O)C(CO)=C[C@@H](C(=O)O1)[C@]34O)O2` (stereo not given in full) as the compound, how does the IC50 (Plasmodium berghei [1]) read?
**A.** 1640 nM

**Q.** What about the Activity (Anopheles stephensi) of the same compound?
**A.** Active

**Q.** What about the Activity (Plasmodium berghei [3]) of the same compound?
**A.** inactive

**Q.** How did the Activity (Plasmodium berghei [3]) turn out when `CCC(C)[C@H]1O[C@]2(CC[C@@H]1C)C[C@@H]1C[C@@H](C/C=C(\C)[C@@H](O[C@H]3C[C@H](OC)[C@@H](OC(=O)CCl)[C@H](C)O3)[C@@H](C)/C=C/C=C3\CO[C@@H]4[C@H](O)C(C)=C[C@@H](C(=O)O1)[C@]34O)O2` (stereo not given in full) was run?
**A.** inactive

**Q.** With `CCC(C)[C@H]1O[C@]2(CC[C@@H]1C)C[C@@H]1C[C@@H](C/C=C(\C)[C@@H](O[C@H]3C[C@H](OC)[C@@H](O[C@H]4C[C@H](OO)[C@@H](O)[C@H](C)O4)[C@H](C)O3)[C@@H](C)/C=C/C=C3\CO[C@@H]4[C@H](O)C(CO)=C[C@@H](C(=O)O1)[C@]34O)O2` (stereo not given in full) as the compound, how does the IC50 (Plasmodium berghei [1]) read?
**A.** 2220 nM

**Q.** What about the Activity (Anopheles stephensi) of the same compound?
**A.** Active

**Q.** And the Activity (Plasmodium berghei [3])?
**A.** inactive

**Q.** How did the IC50 (Plasmodium berghei [1]) turn out when `CCC(C)[C@H]1O[C@]2(CC[C@@H]1C)C[C@@H]1C[C@@H](C/C=C(\C)[C@@H](O[C@H]3C[C@H](OC)[C@@H](O)[C@H](C)O3)[C@@H](C)/C=C/C=C3\CO[C@@H]4[C@H](O)C(CO)=C[C@@H](C(=O)O1)[C@]34O)O2` (stereo not given in full) was run?
**A.** 2600 nM

**Q.** What about the Activity (Anopheles stephensi) of the same compound?
**A.** Active

**Q.** What about the Activity (Plasmodium berghei [3]) of the same compound?
**A.** inactive

**Q.** How did the Activity (Plasmodium berghei [3]) turn out when `CCC(C)[C@H]1O[C@]2(CC[C@@H]1C)C[C@@H]1C[C@@H](C/C=C(\C)[C@@H](O[C@H]3C[C@H](OC)[C@@H](O[C@H]4C[C@H](OO)[C@@H](OC(=O)CCl)[C@H](C)O4)[C@H](C)O3)[C@@H](C)/C=C/C=C3\CO[C@@H]4[C@H](O[Si](C)(C)C(C)(C)C)C(C)=C[C@@H](C(=O)O1)[C@]34O)O2` (stereo not given in full) was run?
**A.** inactive

**Q.** How did the Activity (Plasmodium berghei [6]) turn out when `CCN(CC)CCCC(C)Nc1ccnc2cc(Cl)ccc12` (stereo not given) was run?
**A.** Active

**Q.** `CCC(C)[C@H]1O[C@]2(CC[C@@H]1C)C[C@@H]1C[C@@H](C/C=C(\C)[C@@H](O[C@H]3C[C@H](OC)[C@@H](OC(=O)CNC4CCNCC4)[C@H](C)O3)[C@@H](C)/C=C/C=C3\CO[C@@H]4[C@H](O)C(C)=C[C@@H](C(=O)O1)[C@]34O)O2` (stereo not given in full) was tested. Which IC50 (Plasmodium berghei [1]) did it give?
**A.** 5700 nM

**Q.** And the Activity (Anopheles stephensi)?
**A.** Active

**Q.** What about the Activity (Plasmodium berghei [3]) of the same compound?
**A.** inactive

**Q.** Which IC50 (Plasmodium berghei [1]) does the source give for `CCC(C)[C@H]1O[C@]2(CC[C@@H]1C)C[C@@H]1C[C@@H](C/C=C(\C)[C@@H](O[C@H]3C[C@H](OC)[C@@H](O[C@H]4C[C@H](OO)[C@@H](OC(=O)CCl)[C@H](C)O4)[C@H](C)O3)[C@@H](C)/C=C/C=C3\CO[C@@H]4[C@H](O)C(C)=C[C@@H](C(=O)O1)[C@]34O)O2` (stereo not given in full) here?
**A.** 2610 nM

**Q.** And the Activity (Anopheles stephensi)?
**A.** Active

**Q.** What about the Activity (Plasmodium berghei [3]) of the same compound?
**A.** Dose-Dependent Effect

**Q.** And the IC50 (Plasmodium falciparum)?
**A.** 300 nM

**Q.** For `CCC(C)[C@H]1O[C@]2(CC[C@@H]1C)C[C@@H]1C[C@@H](C/C=C(\C)[C@@H](O[C@H]3C[C@H](OC)[C@@H](O[C@H]4C[C@H](OO)[C@@H](O)[C@H](C)O4)[C@H](C)O3)[C@@H](C)/C=C/C=C3\CO[C@@H]4[C@H](O)C(C)=C[C@@H](C(=O)O1)[C@]34O)O2` (stereo not given in full), which IC50 (Plasmodium berghei [1]) is on record?
**A.** 1500 nM

**Q.** And the IC90 (Plasmodium berghei [1])?
**A.** 3100 nM

**Q.** And the Activity (Plasmodium berghei [3])?
**A.** Dose-Dependent Effect

**Q.** What about the IC50 (Plasmodium falciparum) of the same compound?
**A.** 460 nM

**Q.** `CCOC(=O)c1c(C)nc(OCc2cn(CC(=O)O[C@H]3[C@H](C)O[C@@H](O[C@H]4[C@H](C)O[C@@H](O[C@@H]5/C(C)=C/C[C@@H]6C[C@@H](C[C@]7(CC[C@H](C)[C@@H](C(C)CC)O7)O6)OC(=O)[C@@H]6C=C(C)[C@@H](O)[C@H]7OC/C(=C\C=C\[C@@H]5C)[C@]76O)C[C@@H]4OC)C[C@@H]3OC)nn2)nc1-c1cc(OC)c(OC)cc1[N+](=O)[O-]` (stereo not given in full) was tested. Which IC50 (Plasmodium berghei [1]) did it give?
**A.** 2330 nM

**Q.** What about the IC90 (Plasmodium berghei [1]) of the same compound?
**A.** 4280 nM

**Q.** And the Activity (Plasmodium berghei [2])?
**A.** inactive

**Q.** What about the Activity (Plasmodium berghei [3]) of the same compound?
**A.** Dose-Dependent Effect

**Q.** And the Activity (Plasmodium berghei [4])?
**A.** Active

**Q.** And the Activity (Plasmodium berghei [5])?
**A.** inactive

**Q.** What about the IC50 (Plasmodium falciparum) of the same compound?
**A.** 30 nM

**Q.** How did the Activity (Plasmodium berghei [3]) turn out when `CCC(C)[C@H]1O[C@]2(CC[C@@H]1C)C[C@@H]1C[C@@H](C/C=C(\C)[C@@H](O[C@H]3C[C@H](OC)[C@@H](OC(=O)CCl)[C@H](C)O3)[C@@H](C)/C=C/C=C3\CO[C@@H]4[C@H](O[Si](C)(C)C(C)(C)C)C(C)=C[C@@H](C(=O)O1)[C@]34O)O2` (stereo not given in full) was run?
**A.** inactive

**Q.** How did the IC50 (Plasmodium berghei [1]) turn out when `CCC(C)[C@H]1O[C@]2(CC[C@@H]1C)C[C@@H]1C[C@@H](C/C=C(\C)[C@@H](O[C@H]3C[C@H](OC)[C@@H](O)[C@H](C)O3)[C@@H](C)/C=C/C=C3\CO[C@@H]4[C@H](O)C(C)=C[C@@H](C(=O)O1)[C@]34O)O2` (stereo not given in full) was run?
**A.** 5630 nM

**Q.** What about the Activity (Anopheles stephensi) of the same compound?
**A.** Active

**Q.** And the Activity (Plasmodium berghei [3])?
**A.** inactive
